Data on two compounds can be found in patent US20080260774A1, “Alpha-galactosyl ceramide analogs and their use as immunotherapies” (priority 2007, published 2008).

The subject of one data set is tetanus toxoid (TT). Particulars: mouse, in vivo.
Data set [1] concerns syngeneic lung cancer (TC1) cells. Description: Lung cancer model in mice (TC1, IV inoculation). The class given is in vivo, mouse. The conditions noted are these: IV administration.
The test system of data set [2] is FLU-A virus serotype H1N1 (WSN). Description: Cytopathetic effect / virus titer in MDCK cells infected with H1N1 (WSN). It counts as cell-based. Particulars: pretreated at 10 μg/ml for four hours; 10TCID50; 48 hours post-infection. As for the experimental part:
FIG. 60(A-B) show the cytopathetic effect (CPE) of Madin-Darby canine kidney (MDCK) cells in vitro. MDCK cells were pretreated with vehicle, α-GalCer or one of the α-GalCer analogs C13, C14 or C16 at 10 μg/ml for four hours, followed by infection with FLU-A virus serotype H1N1 (WSN) at 10TCID50.
BALB/c mice were treated via intranasal route with control, α-GalCer (C1) or the α-GalCer analogs C13, C14 or C16 at one hour prior to virus challenge with H1N1 (WSN). […] In general, certain α-GalCer analogs may exert direct anti-viral effects, or act indirectly via immune stimulation. […] MDCK cells were pretreated with vehicle, α-GalCer or one of the α-GalCer analogs C13, C14 or C16 at 10 μg/ml for four hours, followed by infection with FLU-A virus serotype H1N1 (WSN) at 10TCID50.

The subject of the next data set is Klebsiella pneumoniae. Description: Antibacterial efficacy in K. pneumoniae infected mice. It counts as in vivo, mouse. The conditions noted are these: 100 μg/kg twice at 4-hour and 8-hour after infection. As for the experimental part:
K. pneumoniae is a Gram negative bacterium that causes liver abscess and is becoming a serious disease in Taiwan among diabetic patients. […] BALB/cByl female mice were administered a single dose of live K. pneumoniae by oral gavage. […] Twenty four hours after infection, both the liver and lungs were collected from each mouse, and homogenized. Bacterial counts were determined similarly as described above. BALB/c-Byl female mice (ten mice per group) were administered a single dose (10^6 CFU) of live-K. pneumoniae by oral gavage. Mice in the treatment groups were injected with testing α-GalCer analogs at 100 μg/kg twice at 4-hour and 8-hour after bacterial infection. Mice in the control group were injected with PBS at 4- and 8-hour. Twenty four hours after infection, all mice were sacrificed. Both livers and lungs were collected from each mouse, and homogenized. Bacterial counts were determined similarly as described above.

The subject of data set [3] is BALB/c mice. In words: Mouse serum cytokines/chemokines after IV, SubQ or IM injection. Particulars: IV route. It counts as in vivo.
Another data set relates to tumor metastasis. Particulars: mice; cited from earlier work.
The subject of data set [4] is BALB/c mice. In words: Expansion/activation of mouse splenocyte subpopulations 72 h after injection. The class given is in vivo.
The next data set has as its system mouse spleen cells. Particulars: in vitro stimulation; cited from earlier work.
Data set [5] is classed as in vivo, mouse. Particulars: two weeks after the third vaccination. The protocol:
BALB/c mice were injected IM with globo H-DT/α-GalCer or globo H-DT/α-GalCer analogs three times at two weeks interval. Sera was collected two weeks after the third vaccination and tested for IgG and IgM anti-globo H-specific antibody at 1:480 and 1:240 dilution, respectively, using a glycan microarray.

Data set [6] has as its system mycobacterium tuberculosis, Pseudomonas aeruginosa. Particulars: in vivo; cited from earlier work.
Data set [7] relates to H5 of avian influenza viruses (pHA). The class given is in vivo, mouse.
Another data set deals with advanced cancers. The conditions noted are these: cited from earlier work.
In the next data set the test system is naïve CD161^+/CD3^+ NKTs. Description: Human NKT TCR activation (phosphoproteins), glycolipid presented by HeLa, HeLa-CD1d or iDCs, 10 μg/ml. It counts as cell-based. Particulars: 10 μg/ml.
The test system of data set [8] is human naïve NKTs (CD161^+CD3^+). In words: Cytokine/chemokine secretion by human naïve CD161+CD3+ NKTs co-cultured with autologous immature CD14+ DCs. The class given is cell-based. Particulars: normalized to DMSO control.
The subject of data set [9] is syngeneic breast cancer (4T1). Description: Breast cancer model in mice (4T1, SubQ inoculation). The conditions noted are these: mice bearing breast cancer. The class given is in vivo, mouse.
The subject of another data set is Sphingomonas capsulata. Description: Antibacterial efficacy in Sphingomonas capsulata infected mice. It counts as in vivo, mouse. From the text: Sphingomonas capsulata is a common environmental bacterial strain that is found in many places such as the air and water. It can be easily identified on nutrient agar plates because of its yellow colony color. […] Since the antibacterial activities of glycolipid antigens are mediated through the activation of NKT cells by glycolipid bound-CD1-d molecules, evaluation of the antibacterial efficacies using the disease model of Sphingomonas capsulata infection will focus on the impact of the NKT mediated pathway that is activated by glycolipid bindings. Six to eight week old female C57BL/6 mice were injected IP with Sphingomonas capsulate cells. […] Twenty-four hours after bacterial infection, livers were removed from mice and homogenized. Colony formation units (CFU) of Sphingomonas capsulate in liver homogenates were determined by plating diluted samples on nutrient plates. Colonies were counted after incubation for 48 hours at 37° C. […] To confirm the antibacterial efficacies of these α-GalCer analogs, another study was conducted to repeat the study by treating infected mice with 50 μg/kg in the same disease model. […] Six to eight week old female C57BL/6 mice were injected IP with 5×10^8 Sphingomonas capsulate cells. Mice were grouped into treatment and control groups with 4-6 mice per group. Four hours after the infection, mice in the treatment group were injected IP with testing α-GalCer analogs at 50 or 100 μg/kg, and the control group mice were injected with same volumes of PBS. Twenty-four hours after bacterial infection, mice from all groups were sacrificed. Livers were removed from mice and homogenized in 0.9% NaCl, 0.02% Tween 80 using tissue homogenizers. Colony formation units (CFU) of Sphingomonas capsulate in liver homogenates were determined by plating diluted samples on nutrient plates. Colonies were counted after incubation for 48 hours at 37° C.

The test system of the next data set is C57BL/6 mice. Description: Expansion of NKT subsets in spleens of C57BL/6 mice. It counts as in vivo. The conditions noted are these: C57BL/6 Wt, 72 h post IV injection, 0.1 μg per mouse.
The next data set has as its system TC1 tumor. In words: Tumor infiltrating lymphocytes in lung cancer (TC1) by flow cytometry. Particulars: day 21; 0.1 μg/mouse, once/week; normalized to DMSO. It counts as in vivo. On the technique in general: A flow cytometer gives signals particle by particle.
Another data set deals with B16 melanoma. Description: Tumor infiltrating lymphocytes in B16 melanoma by flow cytometry. It counts as in vivo. The conditions noted are these: day 21; 0.1 μg/mouse, once/week; normalized to DMSO.

“Also recorded” adds a separate entry of the source.

On to `CCCCCCCCCCCCCCCCCCCCCCCCCC(=O)N[C@@H](CO[C@H]1O[C@H](CO)[C@H](O)[C@H](O)[C@H]1O)[C@H](O)[C@H](O)CCCCCCCCCCCCCC` [C1, α-Galactosyl ceramide, reference compound], for which, in the data set with tetanus toxoid (TT), the “antibody production compared with Alum” value is on record as “significantly greater antibody production than Alum”, the “antibody response relative to conventional vaccine” value is about 2 fold and the “level of antibody after delayed boost compared with TT+Alum” value is listed as “twice as high as those given TT+Alum”. The “anti-cancer efficacy compared with C1” value in data set [1] was “significantly greater anti-cancer efficacy than C1”. In addition, the “entry/replication of H1N1 virus (virus titer)” value in [2] was “slight inhibition of the entry/replication of H1N1 virus in vitro”. In addition, the “bacterial loads in mouse lung and liver” value with Klebsiella pneumoniae was “significantly reduce the bacterial loads in mouse lung and liver”. In addition, the “IFN-γ/IL-4 ratio (TH1/TH2 bias)” value in the data set with BALB/c mice [3] (2 hours, compared with C1) was “less TH2 responses than C1”. The “serum level of IFN-γ” value in the data set with BALB/c mice [3] (over 72 hours) is listed as “highest level of IFN-γ when given IV”. Further, the tumor metastasis entry in the data set with tumor metastasis is “suppress tumor metastasis to liver, lung and lymph nodes”. The B cell expansion entry with BALB/c mice [4] (FIGS. 26E, 28E and 30E) is reported as “more active than C1”. Further, in the data set on BALB/c mice [4] (FIGS. 26F, 28F and 30F), the “CD8^+ T cell expansion/activation” value is given as “more active than C1”. Also, in the data set with BALB/c mice [4] (SubQ route), the B cell expansion/activation entry is “significant activities” and the “CD4^+ T cells” value is “most effective; also recorded: more active over control”. Moreover, the “NKT proliferation and cytokine production” value in the data set with mouse spleen cells was “proliferation of NKTs and production of both IFN-[…] and IL-4”. The “anti-globo H IgM antibody” value in data set [5] (1:240 dilution) is recorded as “not in C1 treated group”. In data set [5] (1:480 dilution), the “anti-globo H IgG antibody” value is “elicited significant IgG antibody production”. Besides, in [6], the antibacterial activities entry is “amelioration of mycobacterium tuberculosis infections, clearance of lung infection by Pseudomonas aeruginosa”. The “adjuvant activities in enhancing the anti-HAc antibody titer” value in data set [7] (0.2 μg pHAc) is “better adjuvant activities than the others in enhancing the antibody titer”. Further, the anti-H5 responses result in [7] (5-45 μg H5 DNA vaccine, three weeks after first immunization) was “enhanced by α-GalCer at 5-30 μg H5 DNA, but reached a plateau at 45 μg”. Besides, in data set [7] (H5 DNA dose 0.2-5 μg, two weeks after second immunization), the “adjuvant effect on anti-H5 titers” value is given as “evident for all low dosages tested”. Further, in data set [7] (three weeks after one dose immunization), the “anti-HA-specific IgG antibody” value was “enhanced”. Further, the toxicity entry in the data set with advanced cancers (human, in vivo) is reported as “without any toxicity”. For the same compound, the clinical anti-tumor outcome in the data set with advanced cancers (α-GalCer or α-GalCer-loaded iDCs, phase I) is “no durable tumor regression, stable disease was noted in several patients”. Also, in the data set with naïve CD161^+/CD3^+ NKTs (presented by DCs), the “intracellular phospho-CD3ε” value worked out at 10.8 folds. Also, the “intracellular phospho-CD3ε” value in the data set on naïve CD161^+/CD3^+ NKTs (presented by HeLa-CD1d cells) is on record as 7.3 folds of control. For the same compound, the phospho-ERK1/2 in the data set with naïve CD161^+/CD3^+ NKTs (with DCs) was determined as 30 folds. The same compound came in with a phospho-ERK1/2 with naïve CD161^+/CD3^+ NKTs (with HeLa-CD1d cells) of 6.6 folds increase. In data set [8], the “IFN/IL-4 ratio (TH1/TH2 bias)” value is recorded as “more TH2-biased”. Further, the “effect of route of administration (SubQ vs IV) on anti-tumor efficacy” value in [9] is given as “more effective than IV delivery in prolonging the survival of mice bearing breast cancer; also recorded: statistically better efficacy with SubQ delivery over IV route”. In addition, in the data set on Sphingomonas capsulata (50 μg/kg), the “difference in the values of the CFU per gram liver among efficacious groups” value is “not statistically significant”. Further, in the data set with Sphingomonas capsulata (100 μg/kg IP, 24 hour after bacterial infection), the “CFU numbers in liver” value is “significantly lower than the control group”. In addition, the “total number of NKTs and its two subtypes NKT1 and NKT2” value in the data set with C57BL/6 mice was “increase of total number of NKTs”.
As to `CCCCCCCCCCCCCC[C@@H](O)[C@@H](O)[C@H](CO[C@H]1O[C@H](CO)[C@H](O)[C@H](O)[C@H]1O)NC(=O)CCCCCCCCCCc1ccc(-c2ccc(F)cc2)cc1` [C30], the “number of tumor infiltrating lymphocytes (CD3+ T, CD8 T, NKs, NKTs)” value with TC1 tumor was “significantly significant increase in the number of TH1-biased tumor infiltrating lymphocytes in lung cancer, as compared with both control and α-GalCer”; in the data set with B16 melanoma, “significantly significant increase in the number of TH1-biased tumor infiltrating lymphocytes in melanoma, as compared with both control and α-GalCer”. Besides, the “CFU numbers (in lungs)” value in the data set with Sphingomonas capsulata (50 μg/kg) was “significant in comparison to the untreated group”. The “total number of NKTs and its two subtypes NKT1 and NKT2” value with C57BL/6 mice is recorded as “increase of total number of NKTs”.
